Laboratory results: patent publication US7691572B2, “Method and kit for detecting resistance to antiviral drugs” (priority 1998, dated 2010)
Read-outs that look alike come from different tables or passages of the source.

What was measured:
[1] = tested on: HIV-1 RT; conditions: cited from earlier work
[2] = tested on: HIV-1 reference viruses; conditions: read-out: IC50 Culture based assay, cited from earlier work
[3] = tested on: HIV-1; conditions: classical AZT resistance mutations T215Y/F, M41L, D67N, K70R, K219Q/E; cited from earlier work
[4] = tested on: patient-derived HIV-1; assay: culture-based plaque reduction assay (Schmit et al., 1996); format: cell-based
Excerpt: The results obtained are correlated with the genotypes of the specimens.

[5] = tested on: HIV-1; conditions: cited from earlier work
[6] = tested on: patient-derived HIV-1; conditions: read-out: IC50 Culture based assay, cited from earlier work
[7] = tested on: HIV-1 reference viruses; assay: culture-based assay, inhibition of HIV-1-induced cytopathic effect; format: cell-based
Excerpt: The IC50 values of AZT-TP for WT and MNR reference viruses determined by the Amp-RT assay were compared with previously reported IC50 values determined by a conventional RT assay and a culture-based phenotypic assay (Ueno et al., “Enzymatic characterization of human immunodeficiency virus type 1 reverse transcriptase resistant to multiple 2′,3′-dideoxynucleoside 5′-triphosphates,” J. Biol, Chem. 270: 23605-23611 (1995); Shirasaka et al., “Emergence of human immunodeficiency virus type 1 variants with resistance to multiple dideoxynucleosides in patients receiving therapy with dideoxynucleosides,” Proc. Nat. Acad. Sci. U.S.A. 92: 2398-2402 (1995)).

[8] = tested on: HIV-1 RT; format: biochemical
[9] = tested on: HIV-1 RT; format: biochemical; remark: listed apart in the source
Excerpt: (§1) Four groups of archived HIV-1 specimens with known genotypes were selected for assay validation. These included WT, MNR, MNR carrying unrelated resistance mutations, and non-MNR specimens carrying classical AZT resistance mutations (Schmit et al., “Multiple drug resistance to nucleoside analogues and nonnucleoside reverse transcriptase inhibitors in an efficiently replicating human immunodeficiency virus type 1 patient strain,” J. Infect. Dis. 174: 962-968 (1996); Winters et al., “A 6-base pair insert in the reverse transcriptase gene of human immunodeficiency virus type 1 confers resistance to multiple nucleoside inhibitors,” J. Clin. Invest. 102: 1769-1775 (1998); Adje et al., “High prevalence of genotypic and phenotypic HIV-1 drug-resistant strains among patients receiving antiretroviral therapy in Abidjan, Cote d'Ivoire,” J. Acquired Immune Deficiency Syndromes 26: 501-506 (2001); Weinstock et al., “Prevalence of mutations associated with reduced antiretroviral drug susceptibility among human immunodeficiency virus type 1 seroconverters in the United States, 1993-1998,” J. Infect. Dis. 182: 330-333 (2000)). Forty-four samples were selected which comprised 7 viral stocks and 37 plasma samples obtained from 34 HIV-1-infected persons.

[10] = target: T1, HIV-1 RT (Human immunodeficiency virus type 1 group M subtype B, UniProt P04585); format: biochemical; conditions: read-out: IC50 Amp-RT assay; patient-derived virus 12 (L1), None
Excerpt: as §1

[11] = target: HIV-1 RT (Human immunodeficiency virus type 1, UniProt P04585, F664L/S655G/V662I, form not given); format: biochemical; conditions: read-out: IC50 Amp-RT assay; patient-derived virus 15 (L6), S68G, V75I, F77L, K103N, F116Y, Q151M, M184V
Excerpt: as §1

[12] = target: HIV-1 RT (Human immunodeficiency virus type 1, UniProt P04585, S655G/V662I, form not given); format: biochemical; conditions: read-out: IC50 Amp-RT assay; patient-derived virus 14 (L4), A62A/V, S68G, V75I, F77L, F116Y, Q151M
Excerpt: as §1

[13] = target: HIV-1 RT (Human immunodeficiency virus type 1, UniProt P04585, Q738M/S655G); format: biochemical; conditions: read-out: IC50 Amp-RT assay; patient-derived virus 13 (L2), S68G, Q151M
Excerpt: as §1

[14] = tested on: HIV-1 RT; assay: Amp-RT assay, AZT-TP and other NRTI-TPs, reference viruses; format: biochemical
[15] = target: T1, HIV-1 RT; assay: as above; format: biochemical; conditions: WT HIV-1SUM9
[16] = target: HIV-1 RT (Human immunodeficiency virus type 1, UniProt P04585, A649V/F664L/F703Y/Q738M/V662I); assay: as above; format: biochemical
[17] = target: HIV-1 RT (Human immunodeficiency virus type 1, UniProt P04585, F664L/F703Y/Q738M); assay: as above; format: biochemical
[18] = target: HIV-1 RT (Human immunodeficiency virus type 1, UniProt P04585, Q738M); assay: as above; format: biochemical
[19] = HIV1SUM13 (A62V, V75I, F77L, F116Y, Q151M)

## Cc1cn([C@H]2C[C@H](N=[N+]=[N-])[C@@H](CO)O2)c(=O)[nH]c1=O [AZT, zidovudine]
[1]; HIV1SUM8 (Q151M)
  IC50: 190 nM
[1]; HIV1SUM9 (None)
  IC50: 23 nM
[1]; HIV1SUM12 (F77L, F116Y, Q151M)
  IC50: 880 nM
[1]; [19]
  IC50: 1500 nM
[2]; HIV1SUM8 (Q151M)
  IC50: 5000 nM
[2]; HIV1SUM9 (None)
  IC50: 500 nM
[2]; HIV1SUM12 (F77L, F116Y, Q151M)
  IC50: > 160000 nM
[2]; [19]
  IC50: > 160000 nM
[3]
  resistance to AZT: > 100 fold
[4]; 13 (L2)
  fold change from IC50 of WT HIV-1, Culture based assay: (1.5) fold
[4]; 14 (L4)
  fold change from IC50 of WT HIV-1, Culture based assay: (633) fold
[4]; 15 (L6)
  fold change from IC50 of WT HIV-1, Culture based assay: (3117) fold
[5]; plasma sample HIV-1R598 (D67N, V106A, L214W, L214F, T215Y)
  reduced susceptibility to AZT: 100 fold
[5]; specimen no. 40 (T215Y, T69S-EA insertions)
  reduced susceptibility to AZT: 100 fold
[6]; 12 (L1), None
  IC50: 6 nM
[6]; 13 (L2), S68G, Q151M
  IC50: 9 nM
[6]; 14 (L4), A62A/V, S68G, V75I, F77L, F116Y, Q151M
  IC50: 3800 nM
[6]; 15 (L6), S68G, V75I, F77L, K103N, F116Y, Q151M, M184V
  IC50: 18700 nM
[7]; HIV1SUM8
  fold change from IC50 of WT HIV-1, Culture based assay: (10) fold
[7]; HIV1SUM12
  fold change from IC50 of WT HIV-1, Culture based assay: (>320) fold
[7]; HIV1SUM13
  fold change from IC50 of WT HIV-1, Culture based assay: (>320) fold
[8]; HIV1SUM8 (Q151M)
  fold change from IC50 of WT HIV-1, RT assay: (8.3) fold
[8]; HIV1SUM12
  fold change from IC50 of WT HIV-1, RT assay: (38) fold
[8]; HIV1SUM13
  fold change from IC50 of WT HIV-1, RT assay: (65) fold
[9]; patient-derived virus 13 (L2)
  fold change from IC50 of WT HIV-1, Amp-RT assay: (3.9) fold
[9]; patient-derived virus 14 (L4)
  fold change from IC50 of WT HIV-1, Amp-RT assay: (23.5) fold
[9]; patient-derived virus 15 (L6)
  fold change from IC50 of WT HIV-1, Amp-RT assay: (41.8) fold
[10]
  IC50: 350 nM
[11]
  IC50: 14600 nM
[12]
  IC50: 8230 nM
[13]
  IC50: 1350 nM
[14]; MNR HIV-1SUM8 (Q151M)
  fold resistance (IC50) as compared to the mean IC values of WT HIV-1: (5) fold
[14]; MNR HIV-1SUM12 (F77L, F116Y, Q151M)
  fold resistance (IC50) as compared to the mean IC values of WT HIV-1: (22) fold
[14]; MNR HIV-1SUM13 (A62V, V75I, F77L, F116Y, Q151M)
  fold resistance (IC50) as compared to the mean IC values of WT HIV-1: (36) fold
[15]
  IC50: 500 nM
[16]
  IC50: 18000 nM
[17]
  IC50: 11000 nM
[18]
  IC50: 2500 nM
